Laboratory results: ChEMBL document CHEMBL3297726, “Isolation and structure elucidation of cystargamide, a lipopeptide from Kitasatospora cystarginea” (J Nat Prod, 2014)
Activity calls are given as the source filed them. Positions of bridges follow the written chain, without caps; N, C: chain ends. Non-standard residues stand in square brackets, D forms with d. Residues, ends and D or L forms follow the SMILES beside them. *: point of attachment. Trp(5-OH) = N[C@@H](Cc1c[nH]c2ccc(O)cc12)C(=O)O; Hpg = N[C@H](C(=O)O)c1ccc(O)cc1; X1 = CCCCCCCC1OC1C(=O)*

What was measured:
Format in all cases: functional, organism-based
Staphylococcus aureus = assay: Antimicrobial activity against methicillin-resistant Staphylococcus aureus ATCC 33591 assessed as growth inhibition at 128 ug/ml
Candida albicans = assay: Antimicrobial activity against Candida albicans ATCC 14035 assessed as growth inhibition at 128 ug/ml
Enterococcus faecium = assay: Antimicrobial activity against vancomycin-resistant Enterococcus faecium EF379 assessed as growth inhibition at 128 ug/ml
Staphylococcus warneri = assay: Antimicrobial activity against Staphylococcus warneri ATCC 17917 assessed as growth inhibition at 128 ug/ml

Measured: growth inhibition (GI)

CCCCCCCC1OC1C(=O)N[C@@H]1C(=O)N[C@@H](Cc2ccccc2)C(=O)N[C@@H](CCC(=O)O)C(=O)N[C@@H](Cc2c[nH]c3ccc(O)cc23)C(=O)N[C@@H](c2ccc(O)cc2)C(=O)NCC(=O)O[C@@H]1C (some centres undefined) (X1-TFE[Trp(5-OH)][Hpg]G; ester 1-C)
inactive: all assays above
